Where two headings read alike, the source gives them in different places.
Columns and labels:
P. variotii = test: MIC (Table 5); details: Paecilomyces variotii; for MIC: read-out: MIC 100%
Paeceilomyces variotii = test: MIC, CLSI M38-A2 broth dilution (Table 1); assay type: cell-based; details: isolate QC
C. parapsilosis = test: MIC against Candida species (Table 4)
Aspergillus fumigatus = Aspergillus fumigatus mycelia growth dose-response (MIC by linear regression); assay type: cell-based; details: for MIC: Aspergillus fumigatus, FIG. 2A dose-response, linear regression
Cryptococcus neoformans = test: MIC against Cryptococcus neoformans (Table 4); details: for MIC50 / MIC: Cryptococcus neoformans; for MIC: read-out: MIC 100%
Coccidioides sp. = test: microbe, parasite or virus in culture; assay type: cell-based
Trichophyton rubrum = Trichophyton rubrum mycelia growth dose-response (MIC by linear regression); assay type: cell-based; details: for MIC: Trichophyton rubrum, FIG. 3 dose-response, linear regression
Apophysomyces = test: MIC (Table 5)
Scedosporium sp. = test: MIC (Table 5)
Histoplasma capsulatum = assay type: cell-based; details: 24-hour treatment
C. guilliermondii = test: MIC against Candida species (Table 4); details: Meyerozyma guilliermondii
Blastomyces dermatitidis = test: MIC (Table 6); assay type: cell-based; details: for MIC: read-out: MIC 100%
Rhizopus oryzae = test: MIC, CLSI M38-A2 broth dilution (Table 1); assay type: cell-based
Fusarium sp. = test: MIC (Table 5); assay type: cell-based; details: for MIC / MIC50: Fusarium; for MIC: read-out: MIC 100%
[1] = read-out: MIC, concentration resulting in 50% inhibition of mycelia growth
[2] = read-out: MIC, concentration resulting in 90% inhibition of mycelia growth

NCC(=O)Nc1ccc(-n2nc(C(F)(F)F)cc2-c2ccc3c(ccc4ccccc43)c2)cc1 [AR-12, 2-amino-N-(4-(5-(phenanthren-2-yl)-3-(trifluoromethyl)-1H-pyrazol-1-yl)phenyl)acetamide]
0.25 µg/mL: MIC50 (Blastomyces dermatitidis; isolate BD1, 72/192 hrs)
8 to 40 µM: concentration that effectively prevents growth (Aspergillus fumigatus; stated for all three fungi) | concentration that effectively prevents growth (Trichophyton rubrum; stated for all three fungi)
11.3 µM: MIC (Trichophyton rubrum; [2])
loss of yeast viability: viability staining of yeasts (Histoplasma capsulatum; ethidium bromide / fluorescein staining)
3.1 µM: MIC (Aspergillus fumigatus; [1])
1 µg/mL: MIC50 (Blastomyces dermatitidis; isolate BD3, 72/192 hrs)
4.5 µM: MIC (Trichophyton rubrum; [1])
0.5 µg/mL: MIC (Blastomyces dermatitidis; isolate BD1, 72/192 hrs)
4 µg/mL: MIC50 (P. variotii) | MIC (P. variotii; 24 h) | MIC (P. variotii) | MIC (C. parapsilosis; 24 h, read-out: MIC 100%, isolate CP-2, 24 hrs) | MIC (C. parapsilosis; 24 h, read-out: MIC 100%, isolate CP-3, 24 hrs) | MIC (C. parapsilosis; 24 h, read-out: MIC 100%, isolate CP-4, 24 hrs) | MIC (C. parapsilosis; 24 h, read-out: MIC 100%, isolate CP-6, 24 hrs) | MIC50 (C. parapsilosis; 48 h, isolate CP-1, 48 hrs) | MIC50 (C. parapsilosis; 48 h, isolate CP-2, 48 hrs) | MIC50 (C. parapsilosis; 48 h, isolate CP-3, 48 hrs) | MIC50 (C. parapsilosis; 48 h, isolate CP-4, 48 hrs) | MIC50 (C. parapsilosis; 48 h, isolate CP-5, 48 hrs) | MIC50 (C. parapsilosis; 48 h, isolate CP-6, 48 hrs) | MIC (C. parapsilosis; 48 h, read-out: MIC 100%, isolate CP-1, 48 hrs) | MIC (C. parapsilosis; 48 h, read-out: MIC 100%, isolate CP-2, 48 hrs) | MIC (C. parapsilosis; 48 h, read-out: MIC 100%, isolate CP-3, 48 hrs) | MIC (C. parapsilosis; 48 h, read-out: MIC 100%, isolate CP-4, 48 hrs) | MIC (C. parapsilosis; 48 h, read-out: MIC 100%, isolate CP-5, 48 hrs) | MIC (C. parapsilosis; 48 h, read-out: MIC 100%, isolate CP-6, 48 hrs) | MIC (C. parapsilosis; 48 h, read-out: MIC 100%, isolate CP-7, 48 hrs) | MIC (C. parapsilosis; 48 h, read-out: MIC 100%, isolate QC, 48 hrs) | MIC50 (Cryptococcus neoformans; 48 h, isolate CN-2, 48 hrs) | MIC50 (Cryptococcus neoformans; 48 h, isolate CN-3, 48 hrs) | MIC (Cryptococcus neoformans; 48 h) | MIC50 (Cryptococcus neoformans; 72 h, isolate CN-1, 72 hrs) | MIC50 (Cryptococcus neoformans; 72 h, isolate CN-2, 72 hrs) | MIC50 (Cryptococcus neoformans; 72 h, isolate CN-3, 72 hrs) | MIC (Cryptococcus neoformans; 72 h) | MIC 100% (Cryptococcus neoformans; isolate CN-2, 48 hrs) | MIC 100% (Cryptococcus neoformans; isolate CN-2, 72 hrs) | MIC 100% (Cryptococcus neoformans; isolate CN-3, 48 hrs) | MIC 100% (Cryptococcus neoformans; isolate CN-3, 72 hrs) | MIC (Coccidioides sp.; Coccidioides, read-out: MIC 100%, isolate COCCI-1, 72/192 hrs) | MIC (Coccidioides sp.; Coccidioides, read-out: MIC 100%, isolate COCCI-3, 72/192 hrs) | MIC50 (Apophysomyces) | MIC (Apophysomyces; 24 h, read-out: MIC 100%, isolate AE-1, 24 hrs) | MIC (Apophysomyces; 24 h, read-out: MIC 100%, isolate AE-2, 24 hrs) | MIC 50% (Apophysomyces; isolate AE-2, 48/72 hrs) | MIC (Apophysomyces; read-out: MIC 100%, isolate AE-1, 48/72 hrs) | MIC (Apophysomyces; read-out: MIC 100%, isolate AE-2, 48/72 hrs) | MIC50 (Scedosporium sp.; isolate S-2, 48/72 hrs) | MIC (Scedosporium sp.; read-out: MIC 100%, isolate S-1, 48/72 hrs) | MIC (Scedosporium sp.; read-out: MIC 100%, isolate S-2, 48/72 hrs) | MIC50 (C. guilliermondii; 24 h, isolate Cgu-5, 24 hrs) | MIC50 (C. guilliermondii; 24 h, isolate Cgu-6, 24 hrs) | MIC (C. guilliermondii; 24 h, read-out: MIC 100%, isolate Cgu-5, 24 hrs) | MIC (C. guilliermondii; 24 h, read-out: MIC 100%, isolate Cgu-6, 24 hrs) | MIC50 (C. guilliermondii; 48 h, isolate Cgu-1, 48 hrs) | MIC50 (C. guilliermondii; 48 h, isolate Cgu-5, 48 hrs) | MIC50 (C. guilliermondii; 48 h, isolate Cgu-6, 48 hrs) | MIC50 (C. guilliermondii; 48 h, isolate Cgu-7, 48 hrs) | MIC (C. guilliermondii; 48 h, read-out: MIC 100%, isolate Cgu-1, 48 hrs) | MIC (C. guilliermondii; 48 h, read-out: MIC 100%, isolate Cgu-2, 48 hrs) | MIC (C. guilliermondii; 48 h, read-out: MIC 100%, isolate Cgu-3, 48 hrs) | MIC (C. guilliermondii; 48 h, read-out: MIC 100%, isolate Cgu-5, 48 hrs) | MIC (C. guilliermondii; 48 h, read-out: MIC 100%, isolate Cgu-6, 48 hrs) | MIC (C. guilliermondii; 48 h, read-out: MIC 100%, isolate Cgu-7, 48 hrs) | MIC50 (Fusarium sp.; isolate F-1, 48/72 hrs) | MIC (Fusarium sp.; isolate F-1, 48/72 hrs) | MIC (Fusarium sp.; isolate F-2, 48/72 hrs) | MIC (Fusarium sp.; isolate F-3, 48/72 hrs) | MIC 50% (Fusarium sp.; isolate F-2, 48/72 hrs) | MIC 50% (Fusarium sp.; isolate F-3, 48/72 hrs)
2 µg/mL: MIC50 (P. variotii; 24 h) | MIC50 (C. parapsilosis; 24 h, isolate CP-1, 24 hrs) | MIC50 (C. parapsilosis; 24 h, isolate CP-2, 24 hrs) | MIC50 (C. parapsilosis; 24 h, isolate CP-3, 24 hrs) | MIC50 (C. parapsilosis; 24 h, isolate CP-4, 24 hrs) | MIC50 (C. parapsilosis; 24 h, isolate CP-5, 24 hrs) | MIC50 (C. parapsilosis; 24 h, isolate CP-6, 24 hrs) | MIC50 (C. parapsilosis; 24 h, isolate CP-7, 24 hrs) | MIC50 (C. parapsilosis; 24 h, isolate QC) | MIC (C. parapsilosis; 24 h, read-out: MIC 100%, isolate CP-1, 24 hrs) | MIC (C. parapsilosis; 24 h, read-out: MIC 100%, isolate CP-5, 24 hrs) | MIC (C. parapsilosis; 24 h, read-out: MIC 100%, isolate CP-7, 24 hrs) | MIC (C. parapsilosis; 24 h, read-out: MIC 100%, isolate QC, 24 hrs) | MIC50 (C. parapsilosis; 48 h, isolate CP-7, 48 hrs) | MIC50 (C. parapsilosis; 48 h, isolate QC) | MIC50 (Cryptococcus neoformans; 48 h, isolate CN-1, 48 hrs) | MIC50 (Coccidioides sp.; Coccidioides) | MIC 50% (Coccidioides sp.; isolate COCCI-1, 72/192 hrs) | MIC 50% (Coccidioides sp.; isolate COCCI-3, 72/192 hrs) | MIC50 (Apophysomyces; 24 h) | MIC 50% (Apophysomyces; isolate AE-2, 24 hrs) | MIC50 (Scedosporium sp.; 24 h, isolate S-2, 24 hrs) | MIC (Scedosporium sp.; 24 h, read-out: MIC 100%, isolate S-2, 24 hrs) | MIC50 (Scedosporium sp.; isolate S-1, 48/72 hrs) | MIC50 (C. guilliermondii; 24 h, isolate Cgu-1, 24 hrs) | MIC50 (C. guilliermondii; 24 h, isolate Cgu-2, 24 hrs) | MIC50 (C. guilliermondii; 24 h, isolate Cgu-3, 24 hrs) | MIC50 (C. guilliermondii; 24 h, isolate Cgu-4, 24 hrs) | MIC50 (C. guilliermondii; 24 h, isolate Cgu-7, 24 hrs) | MIC (C. guilliermondii; 24 h, read-out: MIC 100%, isolate Cgu-1, 24 hrs) | MIC (C. guilliermondii; 24 h, read-out: MIC 100%, isolate Cgu-2, 24 hrs) | MIC (C. guilliermondii; 24 h, read-out: MIC 100%, isolate Cgu-3, 24 hrs) | MIC (C. guilliermondii; 24 h, read-out: MIC 100%, isolate Cgu-4, 24 hrs) | MIC (C. guilliermondii; 24 h, read-out: MIC 100%, isolate Cgu-7, 24 hrs) | MIC50 (C. guilliermondii; 48 h, isolate Cgu-2, 48 hrs) | MIC50 (C. guilliermondii; 48 h, isolate Cgu-3, 48 hrs) | MIC50 (C. guilliermondii; 48 h, isolate Cgu-4, 48 hrs) | MIC (C. guilliermondii; 48 h, read-out: MIC 100%, isolate Cgu-4, 48 hrs) | MIC50 (Blastomyces dermatitidis; isolate BD2, 72/192 hrs) | MIC (Blastomyces dermatitidis; isolate BD2, 72/192 hrs) | MIC (Blastomyces dermatitidis; isolate BD3, 72/192 hrs) | MIC (Fusarium sp.; 24 h, isolate F-1, 24 hrs) | MIC (Fusarium sp.; 24 h, isolate F-2, 24 hrs) | MIC (Fusarium sp.; 24 h, isolate F-3, 24 hrs) | MIC50 (Fusarium sp.; isolate F-1, 24 hrs) | MIC 50% (Fusarium sp.; isolate F-2, 24 hrs) | MIC 50% (Fusarium sp.; isolate F-3, 24 hrs)
about 1000 fold: reduction of fungal viability (Histoplasma capsulatum; then growth in absence of drug)
4 gg/m1: MIC 50% (Paeceilomyces variotii) | MIC 100% (Paeceilomyces variotii) | MIC 50% (Rhizopus oryzae; isolate RO1, 24 hours) | MIC 100% (Rhizopus oryzae; isolate RO1, 24 hours) | MIC 50% (Rhizopus oryzae; isolate RO2, 24 hours) | MIC 100% (Rhizopus oryzae; isolate RO2, 24 hours) | MIC 50% (Rhizopus oryzae; isolate RO3, 24 hours) | MIC 100% (Rhizopus oryzae; isolate RO3, 24 hours)
8.6 µM: MIC (Aspergillus fumigatus; [2])
8 µg/mL: MIC (Coccidioides sp.; Coccidioides, read-out: MIC 100%, isolate COCCI-2, 72/192 hrs)
